Values quoted from earlier work in patent US8347551B2, “Method of applying pesticides” (priority 2004, dated 2013).
Like-named read-outs stand apart in the source and are kept apart here.

Tests used:
[1] = test system: pest; conditions: seed treatment; dose giving sufficient control of the pest; dutch registration code no. 8672
[2] = test system: pest; conditions: seed treatment, dose giving sufficient control of the pest
[3] = test system: pest; conditions: seed treatment; dose giving sufficient control of the pest; dutch registration code no. 11455
[4] = test system: pest; conditions: seed treatment; dose giving sufficient control of the pest; dutch registration code no. 8928
[5] = test system: pest; conditions: seed treatment; dose giving sufficient control of the pest; dutch registration code no. 11492

In the case of `COC(=O)Nc1nc2ccccc2[nH]1` [carbendazim], the “Effective Dose” value [1] is listed as 1 g per kg onion seeds.
For `CCOP(=S)(OCC)Oc1nc(Cl)c(Cl)cc1Cl` [chlorpyriphos], the “Effective Dose” value ([2]; dutch registration code no. 10968) is listed as 0.096 g per 1000 brassica seeds.
For `O=[N+]([O-])NC1=NCCN1Cc1ccc(Cl)nc1` [imidacloprid], the “Effective Dose” value [3] is given as 0.8 g per 1000 lettuce seeds.
In the case of `CC(C)NC(=O)N1CC(=O)N(c2cc(Cl)cc(Cl)c2)C1=O` [iprodione], the “Effective Dose” value [4] is given as 5 g per kg carrot seeds.
In the case of `COCC(=O)N(c1c(C)cccc1C)[C@H](C)C(=O)OC` [metalaxyl-m], the “Effective Dose” value ([2]; dutch registration code no. 12280) is given as 0.175 g per kg brassica seeds.
In the case of `CN(C)C(=S)SSC(=S)N(C)C` [thiram], the “Effective Dose” value [5] is given as 1.6 g per kg radish seeds.
